Experimental data published in US8952024B2, “Herbicidal pyrimidone derivatives” (E I du Pont de Nemours and Company, priority 2009, dated 2015).

Key:
Format in all cases: in vivo
[1] = system: ducksalad (Heteranthera limosa); assay: Test B flooded paddy test; conditions: for Plant response rating, Flood, Ducksalad: 250 g ai/ha, flooded paddy test, visual rating on 0 to 100 scale (0 no effect, 100 complete control) after 13 to 15 days; for Plant response rating, Ducksalad: Flood (flooded paddy test), 13 to 15 days
In short: (§1)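 Each compound is added to standing floodwater (3 cm above soil, maintained) in pots of 2-leaf-stage plants; greenhouse exposure lasts 13–15 d before visual comparison with controls on a 0–100 control scale.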

[2] = system: barnyardgrass (Echinochloa crus-galli); assay: Test B flooded paddy test; conditions: for Plant response rating, Flood, Barnyardgrass: 250 g ai/ha, flooded paddy test, visual rating on 0 to 100 scale (0 no effect, 100 complete control) after 13 to 15 days; for Plant response rating, Barnyardgrass: Flood (flooded paddy test), 13 to 15 days
In short: as §1

[3] = system: rice (Oryza sativa); assay: Test B flooded paddy test; conditions: for Plant response rating, Flood, Rice: 250 g ai/ha, flooded paddy test, visual rating on 0 to 100 scale (0 no effect, 100 complete control) after 13 to 15 days; for Plant response rating, Rice: Flood (flooded paddy test), 13 to 15 days
In short: as §1

[4] = system: umbrella sedge (Cyperus difformis); assay: Test B flooded paddy test; conditions: for Plant response rating, Flood, Sedge, Umbrella: 250 g ai/ha, flooded paddy test, visual rating on 0 to 100 scale (0 no effect, 100 complete control) after 13 to 15 days; for Plant response rating, Sedge, Umbrella: Flood (flooded paddy test), 13 to 15 days
In short: as §1

[5] = system: barnyardgrass (Echinochloa crus-galli); assay: Test A pre-/postemergence plant response
Excerpt: (§2) Seeds of barnyardgrass (Echinochloa crus-galli), large crabgrass (Digitaria sanguinalis), giant foxtail (Setaria faberii), morningglory (Ipomoea spp.), pigweed (Amaranthus retroflexus), velvetleaf (Abutilon theophrasti), wheat (Triticum aestivum) and corn (Zea mays) were planted into a blend of loam soil and sand and treated preemergence with a directed soil spray using test chemicals formulated in a non-phytotoxic solvent mixture which included a surfactant. At the same time these species were also treated with postemergence applications of test compounds formulated in the same manner.
(§3) Plants ranged in height from two to ten cm and were in the one- to two-leaf stage for the postemergence treatment. Treated plants and untreated controls were maintained in a greenhouse for approximately ten days, after which time all treated plants were compared to untreated controls and visually evaluated for injury. Plant response ratings, summarized in Table A, are based on a 0 to 100 scale where 0 is no effect and 100 is complete control. A dash (-) response means no test result.

[6] = system: morningglory (Ipomoea spp.); assay: Test A pre-/postemergence plant response
Excerpt: as §2, §3

[7] = system: velvetleaf (Abutilon theophrasti); assay: Test A pre-/postemergence plant response
Excerpt: as §2, §3

[8] = system: corn (Zea mays); assay: Test A pre-/postemergence plant response
Excerpt: as §2, §3

[9] = system: giant foxtail (Setaria faberii); assay: Test A pre-/postemergence plant response
Excerpt: as §2, §3

[10] = system: pigweed (Amaranthus retroflexus); assay: Test A pre-/postemergence plant response
Excerpt: as §2, §3

[11] = system: wheat (Triticum aestivum); assay: Test A pre-/postemergence plant response
Excerpt: as §2, §3

[12] = system: large crabgrass (Digitaria sanguinalis); assay: Test A pre-/postemergence plant response
Excerpt: as §2, §3

[13] = 62 g ai/ha, scale of 0 to 100 where 0 is no effect and 100 is complete control
[14] = 125 g ai/ha, scale 0 to 100, 0 is no effect, 100 is complete control
[15] = Flood, 31 g ai/ha, scale 0 to 100 (0 no effect, 100 complete control)
[16] = Postemergence, 125 g ai/ha, 0 to 100 scale where 0 is no effect and 100 is complete control
[17] = Postemergence, 500 g ai/ha, 0 to 100 scale, 0 = no effect, 100 = complete control, approx. ten days
[18] = Preemergence, 125 g ai/ha, 0 to 100 scale, 0 = no effect, 100 = complete control
[19] = Preemergence, 500 g ai/ha, visual injury, 0 to 100 scale (0 no effect, 100 complete control), approx. ten days

CCCn1c(-c2ccco2)ncc(C(=O)C2=C(O)CCCC2=O)c1=O [Compound 110]
Plant response rating, Flood, Ducksalad [1]: 75 | Plant response rating, Ducksalad [1, 13]: 40 | Plant response rating, Ducksalad [1, 14]: 75 | Ducksalad plant response rating [1, 15]: 0 | Plant response rating, Flood, Barnyardgrass [2]: 40 | Plant response rating, Barnyardgrass [2, 13]: 0 | Plant response rating, Barnyardgrass [2, 14]: 20 | Barnyardgrass plant response rating [2, 15]: 0 | Plant response rating, Flood, Rice [3]: 30 | Plant response rating, Rice [3, 13]: 0 | Plant response rating, Rice [3, 14]: 30 | Rice plant response rating [3, 15]: 0 | Plant response rating, Flood, Sedge, Umbrella [4]: 75 | Plant response rating, Sedge, Umbrella [4, 13]: 35 | Plant response rating, Sedge, Umbrella [4, 14]: 50 | Sedge, Umbrella plant response rating [4, 15]: 30 | Plant response rating, Barnyardgrass [5, 16]: 60 | Plant response rating, Barnyardgrass [5, 17]: 90 | Plant response rating, Barnyardgrass [5, 18]: 20 | Plant response rating, Barnyardgrass [5, 19]: 60 | Plant response rating, Morningglory [6, 16]: 90 | Plant response rating, Morningglory [6, 17]: 100 | Plant response rating, Morningglory [6, 18]: 40 | Plant response rating, Morningglory [6, 19]: 70 | Plant response rating, Velvetleaf [7, 16]: 90 | Plant response rating, Velvetleaf [7, 17]: 100 | Plant response rating, Velvetleaf [7, 18]: 60 | Plant response rating, Velvetleaf [7, 19]: 70 | Plant response rating, Corn [8, 16]: 0 | Plant response rating, Corn [8, 17]: 10 | Plant response rating, Corn [8, 18]: 0 | Plant response rating, Corn [8, 19]: 0 | Plant response rating, Foxtail, Giant [9, 16]: 10 | Plant response rating, Foxtail, Giant [9, 17]: 50 | Plant response rating, Foxtail, Giant [9, 18]: 0 | Plant response rating, Foxtail, Giant [9, 19]: 10 | Plant response rating, Pigweed [10, 16]: 90 | Plant response rating, Pigweed [10, 17]: 100 | Plant response rating, Pigweed [10, 18]: 80 | Plant response rating, Pigweed [10, 19]: 90 | Plant response rating, Wheat [11, 16]: 0 | Plant response rating, Wheat [11, 17]: 0 | Plant response rating, Wheat [11, 18]: 0 | Plant response rating, Wheat [11, 19]: 0 | Plant response rating, Crabgrass, Large [12, 16]: 80 | Plant response rating, Crabgrass, Large [12, 17]: 90 | Plant response rating, Crabgrass, Large [12, 18]: 40 | Plant response rating, Crabgrass, Large [12, 19]: 80

CCn1c(-c2cccc(C)c2)ncc(C(=O)C2=C(O)CCCC2=O)c1=O [Compound 115]
Plant response rating, Flood, Ducksalad [1]: 85 | Plant response rating, Ducksalad [1, 13]: 85 | Plant response rating, Flood, Barnyardgrass [2]: 65 | Plant response rating, Barnyardgrass [2, 13]: 50 | Plant response rating, Flood, Rice [3]: 20 | Plant response rating, Rice [3, 13]: 20 | Plant response rating, Flood, Sedge, Umbrella [4]: 90 | Plant response rating, Sedge, Umbrella [4, 13]: 70 | Plant response rating, Barnyardgrass [5, 16]: 70 | Plant response rating, Barnyardgrass [5, 17]: 90 | Plant response rating, Barnyardgrass [5, 18]: 0 | Plant response rating, Barnyardgrass [5, 19]: 80 | Plant response rating, Morningglory [6, 16]: 90 | Plant response rating, Morningglory [6, 17]: 100 | Plant response rating, Morningglory [6, 18]: 60 | Plant response rating, Morningglory [6, 19]: 80 | Plant response rating, Velvetleaf [7, 16]: 100 | Plant response rating, Velvetleaf [7, 17]: 100 | Plant response rating, Velvetleaf [7, 18]: 60 | Plant response rating, Velvetleaf [7, 19]: 90 | Plant response rating, Corn [8, 16]: 0 | Plant response rating, Corn [8, 17]: 20 | Plant response rating, Corn [8, 18]: 0 | Plant response rating, Corn [8, 19]: 0 | Plant response rating, Foxtail, Giant [9, 16]: 50 | Plant response rating, Foxtail, Giant [9, 17]: 80 | Plant response rating, Foxtail, Giant [9, 18]: 20 | Plant response rating, Foxtail, Giant [9, 19]: 70 | Plant response rating, Pigweed [10, 16]: 100 | Plant response rating, Pigweed [10, 17]: 100 | Plant response rating, Pigweed [10, 18]: 70 | Plant response rating, Pigweed [10, 19]: 100 | Plant response rating, Wheat [11, 16]: 0 | Plant response rating, Wheat [11, 17]: 0 | Plant response rating, Wheat [11, 18]: 0 | Plant response rating, Wheat [11, 19]: 0 | Plant response rating, Crabgrass, Large [12, 16]: 60 | Plant response rating, Crabgrass, Large [12, 17]: 90 | Plant response rating, Crabgrass, Large [12, 18]: 20 | Plant response rating, Crabgrass, Large [12, 19]: 80
